Assay results: PubChem BioAssay AID248 (DTP/NCI, 2004)
Values joined by “and” are separate entries in the source; they are usually repeats but may differ in a detail not shown here. Equal entries are not always repeated. Inconclusive results and toxic doses are left out. Cut-off read from the data, not from the text of the source: active = T/C of 150% or more; inactive = T/C below 125%.

System: L1210 leukemia ip in BDF1 mice, survival T/C
Assay: NCI In Vivo Anticancer Drug Screen. Data for tumor model L1210 Leukemia (intraperitoneal) in B6D2F1 (BDF1) mice
Conditions: endpoint: mean survival time, higher = longer survival
Outline: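 Read-out is survival time, reported as the treated-group measurement over the vehicle-control measurement.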

[1] = dose: 100.0 mg/kg/injection, schedule: Q04DX003 (ip), vehicle: Klucel (hydroxypropylcellulose) (HPC)
[2] = dose: 200.0 mg/kg/injection, schedule: Q04DX003 (ip), vehicle: Klucel (hydroxypropylcellulose) (HPC)
[3] = dose: 400.0 mg/kg/injection, schedule: Q04DX003 (ip), vehicle: Klucel (hydroxypropylcellulose) (HPC)
[4] = dose: 100.0 mg/kg/injection, schedule: Q01DX009 (ip), vehicle: Klucel (hydroxypropylcellulose) (HPC)
[5] = dose: 200.0 mg/kg/injection, schedule: Q01DX009 (ip), vehicle: Klucel (hydroxypropylcellulose) (HPC)
[6] = dose: 400.0 mg/kg/injection, schedule: Q01DX009 (ip), vehicle: Klucel (hydroxypropylcellulose) (HPC)
[7] = dose: 400.0 mg/kg/injection, schedule: Q01DX001 (ip), vehicle: saline
[8] = dose: 50.0 mg/kg/injection, schedule: Q04DX003 (ip), vehicle: Klucel (hydroxypropylcellulose) (HPC)
[9] = dose: 100.0 mg/kg/injection, schedule: Q01DX009 (ip), vehicle: saline with Tween-80
[10] = dose: 100.0 mg/kg/injection, schedule: Q04DX002 (ip), vehicle: saline with Tween-80
[11] = dose: 100.0 mg/kg/injection, schedule: Q04DX003 (ip), vehicle: saline with Tween-80
[12] = dose: 200.0 mg/kg/injection, schedule: Q04DX002 (ip), vehicle: saline with Tween-80
[13] = dose: 200.0 mg/kg/injection, schedule: Q04DX003 (ip), vehicle: saline with Tween-80
[14] = dose: 400.0 mg/kg/injection, schedule: Q04DX002 (ip), vehicle: saline with Tween-80
[15] = dose: 400.0 mg/kg/injection, schedule: Q04DX003 (ip), vehicle: saline with Tween-80
[16] = dose: 100.0 mg/kg/injection, schedule: Q01DX009 (ip), vehicle: saline
[17] = dose: 100.0 mg/kg/injection, schedule: Q01DX001 (ip), vehicle: saline
[18] = dose: 200.0 mg/kg/injection, schedule: Q01DX001 (ip), vehicle: saline

Measured: T/C

BrCC(Br)c1ccccc1 (configuration not stated)
inactive: [1] 91 % of control | [2] 91 % of control | [3] 98 % of control

Cc1ccc(S(=O)(=O)NCCCCC(N)C(=O)O)cc1 (configuration not stated)
inactive: [4] 98 % of control | [1] 98 % of control | [5] 98 % of control | [2] 108 % of control | [6] 100 % of control | [3] 98 % of control

Cc1ccccc1NC(=O)Oc1ccc2c(C)cc(=O)oc2c1
inactive: [4] 103 % of control | [5] 100 % of control

O=C(O)C1C2C=Cc3ccccc3C21 (configuration not stated)
inactive: [7] 90 % of control

Cc1cc(OCCOC(=O)Nc2ccccc2F)cc(C)c1Cl
inactive: [4] 93 % of control | [5] 101 % of control | [6] 103 % of control

CS(=O)(=O)c1nc2ccccc2s1
inactive: dose: 25.0 mg/kg/injection, schedule: Q01DX009 (ip), vehicle: saline with Tween-80 97 % of control | dose: 25.0 mg/kg/injection, schedule: Q04DX003 (ip), vehicle: Klucel (hydroxypropylcellulose) (HPC) 101 % of control | dose: 50.0 mg/kg/injection, schedule: Q01DX009 (ip), vehicle: saline with Tween-80 92 % of control | [8] 106 % of control | [9] 107 % of control | [1] 106 % of control

O=C(Nc1ccccc1[N+](=O)[O-])Oc1ccc(-c2ccccc2)cc1
inactive: [9] 93 % of control and 105 % of control | [10] 103 % of control and 117 % of control | [11] 98 % of control | dose: 200.0 mg/kg/injection, schedule: Q01DX009 (ip), vehicle: saline with Tween-80 101 % of control and 92 % of control | [12] 107 % of control and 91 % of control | [13] 95 % of control | dose: 400.0 mg/kg/injection, schedule: Q01DX009 (ip), vehicle: saline with Tween-80 101 % of control and 103 % of control | [14] 101 % of control and 91 % of control | [15] 101 % of control

CC(C)C1CC(C)(C)c2cc3c(cc2O1)C(C)(C)CC(C(C)C)O3 (configuration not stated)
inactive: [1] 91 % of control | [2] 106 % of control | [3] 96 % of control

CN(C)NC(=O)/C=C/c1ccccc1
inactive: [4] 112 % of control | [1] 94 % of control | [5] 102 % of control | [2] 100 % of control | [3] 87 % of control

OC1CCCC2CCC[N-]C12.OC1CCCC2CCC[N-]C12.[Mn+2] (configuration not stated)
inactive: [8] 106 % of control | [1] 113 % of control | [2] 106 % of control

COc1ccc(OC(C)OCCOCCO)cc1 (configuration not stated)
inactive: dose: 100.0 mg/kg/injection, schedule: Q04DX002 (ip), vehicle: saline 107 % of control | dose: 200.0 mg/kg/injection, schedule: Q04DX002 (ip), vehicle: saline 93 % of control | dose: 400.0 mg/kg/injection, schedule: Q04DX002 (ip), vehicle: saline 107 % of control

C#CCN(CCCC)CCCC
inactive: [10] 95 % of control | [12] 100 % of control

O=C(O)c1cc(C(=O)Nc2ccc(C3=NCCN3)cc2)c(C(=O)O)cc1C(=O)Nc1ccc(C2=NCCN2)cc1
inactive: dose: 15.0 mg/kg/injection, schedule: Q01DX Z (ip), vehicle: carboxymethylcellulose (CMC) 95 % of control | dose: 30.0 mg/kg/injection, schedule: Q01DX Z (ip), vehicle: carboxymethylcellulose (CMC) 98 % of control | dose: 60.0 mg/kg/injection, schedule: Q01DX Z (ip), vehicle: carboxymethylcellulose (CMC) 101 % of control | dose: 120.0 mg/kg/injection, schedule: Q01DX Z (ip), vehicle: carboxymethylcellulose (CMC) 95 % of control

Nc1nc(N)c2cc(NCc3ccc(Br)cc3)ccc2n1
inactive: dose: 6.25 mg/kg/injection, schedule: Q01DX009 (ip), vehicle: saline with Tween-80 103 % of control | dose: 12.5 mg/kg/injection, schedule: Q01DX009 (ip), vehicle: saline with Tween-80 100 % of control | dose: 25.0 mg/kg/injection, schedule: Q04DX003 (ip), vehicle: saline 96 % of control

CCOC(=O)c1nnc(-c2ccccc2)[nH]c1=O
inactive: dose: 50.0 mg/kg/injection, schedule: Q01DX009 (ip), vehicle: Klucel (hydroxypropylcellulose) (HPC) 92 % of control | [4] 103 % of control | [5] 103 % of control

O=C(C(F)(F)F)C(F)(F)F
inactive: dose: 6.25 mg/kg/injection, schedule: Q01DX009 (ip), vehicle: saline 95 % of control | dose: 12.5 mg/kg/injection, schedule: Q01DX009 (ip), vehicle: saline 98 % of control | dose: 25.0 mg/kg/injection, schedule: Q01DX009 (ip), vehicle: saline 114 % of control | [16] 88 % of control

O=S(=O)(Cc1ccccc1)CS(=O)(=O)Cc1ccccc1
inactive: dose: 75.0 mg/kg/injection, schedule: Q04DX003 (ip), vehicle: saline 92 % of control | [11] 106 % of control | dose: 150.0 mg/kg/injection, schedule: Q04DX003 (ip), vehicle: saline 90 % of control | [13] 112 % of control | dose: 300.0 mg/kg/injection, schedule: Q04DX003 (ip), vehicle: saline 87 % of control | [15] 98 % of control

O=[N+]([O-])c1cc(/C=N/NC(=S)NC23CC4CC(CC(C4)C2)C3)ccc1Cl
inactive: dose: 75.0 mg/kg/injection, schedule: Q01DX001 (ip), vehicle: other 97 % of control | dose: 150.0 mg/kg/injection, schedule: Q01DX001 (ip), vehicle: other 89 % of control | dose: 300.0 mg/kg/injection, schedule: Q01DX001 (ip), vehicle: other 91 % of control

O=C(NC(Cc1ccccc1)C(=O)NCCCCCCCCCCNC(=O)C(Cc1ccccc1)NC(=O)OCc1ccccc1)OCc1ccccc1 (configuration not stated)
inactive: dose: 50.0 mg/kg/injection, schedule: Q01DX001 (ip), vehicle: saline 92 % of control | [17] 98 % of control | [18] 110 % of control | [7] 104 % of control

[N-]=[N+]=Nc1ccc(-c2nc(N)nc(N)n2)cc1
inactive: dose: 50.0 mg/kg/injection, schedule: Q01DX009 (ip), vehicle: saline 90 % of control | [16] 90 % of control | dose: 100.0 mg/kg/injection, schedule: Q04DX003 (ip), vehicle: acetone 100 % of control | dose: 200.0 mg/kg/injection, schedule: Q01DX009 (ip), vehicle: saline 98 % of control | dose: 200.0 mg/kg/injection, schedule: Q04DX003 (ip), vehicle: acetone 97 % of control | dose: 400.0 mg/kg/injection, schedule: Q04DX003 (ip), vehicle: acetone 90 % of control

CCCc1cc(CN2CCCCC2)c(O)c(CN2CCCCC2)c1O
inactive: [17] 96 % of control | [18] 95 % of control | [7] 88 % of control

CNC(=O)C1C(c2ccc(OC)cc2)C1c1ccc(OC)cc1 (configuration not stated)
inactive: dose: 12.5 mg/kg/injection, schedule: Q04DX002 (ip), vehicle: Klucel (hydroxypropylcellulose) (HPC) 92 % of control | dose: 25.0 mg/kg/injection, schedule: Q04DX002 (ip), vehicle: Klucel (hydroxypropylcellulose) (HPC) 92 % of control | dose: 50.0 mg/kg/injection, schedule: Q04DX002 (ip), vehicle: Klucel (hydroxypropylcellulose) (HPC) 95 % of control

Oc1c2ccccc2cc2cnc3ccccc3c12
inactive: dose: 100.0 mg/kg/injection, schedule: Q01DX001 (ip), vehicle: carboxymethylcellulose (CMC) 107 % of control | dose: 200.0 mg/kg/injection, schedule: Q01DX001 (ip), vehicle: carboxymethylcellulose (CMC) 103 % of control | dose: 400.0 mg/kg/injection, schedule: Q01DX001 (ip), vehicle: carboxymethylcellulose (CMC) 94 % of control

Cc1cc(C)c(O)c(Br)c1
inactive: [10] 103 % of control | [12] 96 % of control | [14] 107 % of control

OCCSc1ncc2cnccn12
inactive: dose: 100.0 mg/kg/injection, schedule: Q01DX009 (ip), vehicle: water 98 % of control | dose: 100.0 mg/kg/injection, schedule: Q04DX003 (ip), vehicle: water 101 % of control | dose: 200.0 mg/kg/injection, schedule: Q01DX009 (ip), vehicle: water 96 % of control | dose: 200.0 mg/kg/injection, schedule: Q04DX003 (ip), vehicle: water 93 % of control | dose: 400.0 mg/kg/injection, schedule: Q01DX009 (ip), vehicle: water 102 % of control | dose: 400.0 mg/kg/injection, schedule: Q04DX003 (ip), vehicle: water 95 % of control
